Laboratory results reported in paper PMC12579162, “Synthesized Depside Molecules Suppress the Progression of Colorectal Cancer by Binding VDAC1/PHB/MMP9 Being at the Crossroads of Stemness, Motility, Apoptosis, and Metabolism” (MedComm, 2025).

Columns and labels:
CSC221 cells = experiment: MTT cell viability, CSC221; assay type: cell-based; conditions: Homo sapiens; 48 h, MTT assay
Protocol: (§1) Cells (3 × 10^3 cells/well) were seeded on a 96‐well plate, grown overnight, and then treated with compounds at indicated concentrations for 48 h. After incubation with MTT for 4 h at 37°C, cells were lysed with 150 µL of DMSO (Sigma–Aldrich, St. Louis, USA). Absorbance was measured at 570 nm on a microplate reader with the Gen5 software (v.2.03.1; BioTek, Winooski, VT, USA).

HEK293T cells = experiment: MTT cell viability, HEK293T; assay type: cell-based; conditions: Homo sapiens, HEK-293T; 48 h, MTT assay
Protocol: as §1

[1] = Pharmacokinetic study in rat; assay type: in vivo, Sprague–Dawley rats; conditions: male, Sprague-Dawley, plasma; for AUC(0-inf): read-out: AUCINF obs
Protocol: The stock solution of SB4 and SB5 was prepared at a concentration of 1.0 mg/mL in DMSO. Additionally, the standard solutions for SB4 and SB5 were prepared by diluting with 60% ACN (0.1% formic acid) in distilled water (DW). The final concentrations of the prepared standard solutions were 5, 10, 25, 50, 100, 250, 500, and 1000 ng/mL, and they were prepared in 1.5 mL polyethylene microtubes (Axygen Inc., Union City, CA, USA). Furthermore, quality control samples were manufactured using DMSO, with final concentrations of 15 ng/mL (low quality control), 80 ng/mL (mid quality control), and 800 ng/mL (high quality control) using 60% ACN (0.1% formic acid) in DW. The IS solution (Deucravacitinib) was also prepared in DMSO and diluted to a final concentration of 10 ng/mL in 60% ACN (0.1% formic acid) in DW.
The sample stored at −80°C was dissolved at room temperature, vortexed for 3 s, and a protein precipitation method using ACN was employed. In a 1.5 mL polyethylene microtube, 10 µL of the IS (10 ng/mL) was added to 45 µL of plasma, and 500 µL of ACN was added. Next, the sample was mixed in a vortex (M37610‐33; Barnstead International, USA) for 3 min. Then, 500 µL of the supernatant was centrifuged at 10000 g for 10 min and transferred to a LC vial, from which 10 µL was injected into the LC–MS/MS system.
The LC–MS/MS system comprises a SCIEX Triple Quad 6500+ system (Melbourne, Australia) coupled with a Shimadzu Nexera series SCL‐40 system controller, DGU‐405 degassing unit, LC‐40D X3 solvent delivery module, SIL‐40C X3 autosampler, and CTO‐40C column oven (Melbourne, Australia).
Chromatographic separations were performed using a Synergi 4 µm Hydro‐RP 80 Å, LC Column (30 × 2 mm). The mobile phase consisted of 0.1% FA in DW and ACN in 0.1% FA. The optimal flow rate was 0.5 mL/min, and the linear gradient elution profile was as follows: 0–0.5 min 20% B, 0.5–1.0 min 80% B, 1.0–2.0 min 80% B, 2.0–2.5 min 20% B, 2.5–3.0 min 20% B. The injection volume was 5 µL, and the total analysis time per sample was 3.0 min. The column oven temperature was maintained at 40°C.
The sample was ionized by an electrospray ionization source. The mass spectrometer was operated in positive ion mode with MRM scan mode for high sensitivity and selectivity. The turbo ion gas temperature was set at 400°C. To optimize the source parameters and compound parameters, a standard solution of 10 ng/mL was injected into the mass spectrometer at a rate of 7 µL/min through an infusion pump. The MRM transitions selected for quantification were m/z 375.075 to 150.100 for DA, m/z 447.113 to 415.200 for SB‐04, m/z 461.119 to 429.100 for SB‐05, and m/z 426.093 to 358.000 for the IS (Deucravacitinib). The system operating programs were Analyst software (version 1.7.2) and Chromelon.
The animal testing procedure was approved by the Animal Management Committee of Dankook University (21‐038). Seven‐week‐old male Sprague–Dawley rats (weighing 250–290 g) were purchased from Samtaco Inc. (Osan, South Korea). All rats were housed randomly in groups of four, maintained under appropriate lighting and room conditions (22 ± 2°C, relative humidity 50 ± 10%, with a 12‐h light/dark cycle). Prior to the experiments, the rats had free access to food (Samtaco Inc.) and water in their cages. The animal experiments were conducted after a minimum environmental adaptation period of 1 week. On the day of the experiments, the jugular vein of each rat was cannulated individually with polyethylene tubing (Clay Adams, Parsippany, NJ, USA) under anesthesia. The cannula was exteriorized to the dorsal side of the neck, where the cannula terminated with a long silastic tubing (Dow Corning, Midland, MI, USA). The silastic tube was covered with a wire to allow free movement of the rat. Each rat was housed individually in a rat metabolic cage (Daejong Scientific Company, Seoul, Korea) and was allowed to recover from anesthesia for 4–5 h before the study began. The rats were not restrained during the experimental period. […]

CRC cells = experiment: Transwell invasion assay; assay type: cell-based, human; conditions: 5 µM, 24 h, versus vehicle-treated control
CRC cell lines = experiment: Apoptosis / cell death analysis; assay type: cell-based, human
Protocol: Cells were cultured in a six‐well plate at the density of 2 × 10^5 cells/well until adherence. Cells were treated with DMSO or compound for 48 h. Apoptosis or cell cycle experiments were then performed. For apoptosis analysis, cells were harvested and washed with PBS, resuspended in 100 µL of 1× binding buffer followed by staining with 4 µL of Annexin V–FITC (BD, Biosciences, San Jose, CA, USA), and 8 µL of 50 µg/mL propidium iodide (PI; BD Biosciences, San Jose, CA, USA) for 30 min in the dark. For cell cycle analysis, cells were washed with FACS washing buffer, incubated with trypsin solution, followed by RNase A for 10 min at room temperature. Cells were centrifuged and pellets were collected and stained with 100 µL of 4 mg/mL PI (Sigma–Aldrich) for 2 h in the dark at 4°C. Cells were detected by flow cytometry on a CytoFLEX instrument (Beckman Coulter Life Sciences, Indianapolis, IN, USA).

Row | AUC(0-t) ([1]; IP 10 mg/kg) [ng·h/mL] | Cmax ([1]; IP 10 mg/kg) [ng/mL] | Tmax ([1]; IP 10 mg/kg) [h] | AUC(0-inf) ([1]; IP 10 mg/kg) [ng·h/mL] | AUC(0-t) ([1]; PO 10 mg/kg) [ng·h/mL] | Cmax ([1]; PO 10 mg/kg) [ng/mL] | Tmax ([1]; PO 10 mg/kg) [h] | Structure (SMILES) | IC50 (CSC221 cells) [µM] | IC50 (HEK293T cells) [µM] | number of invaded cells (CRC cells) | concentration with cell death ability (CRC cell lines) [µM]
1 | 108 ± 17.9 | 45.63 ± 0.31 | 0.31 ± 0.13 | 209 ± 32.4 | 87.1 ± 11.8 | 22 ± 8.01 | 4.13 ± 2.59 | COCCCOc1c(C)c(OC(=O)c2c(C)cc(OC)c(C)c2OC)cc(C)c1C(=O)OC [SB5, 4-(Methoxycarbonyl)-3-(3-methoxypropoxy)-2,5-dimethylphenyl 2,4-dimethoxy-3,6-dimethylbenzoate] | 131 | 63.2 | significantly reduced the number of invaded cells | ~10
2 | 173 ± 16.3 | 60.8 ± 18.2 | 0.31 ± 0.13 | 394 ± 172 | 113 ± 19.2 | 27.8 ± 14.7 | 2.88 ± 2.59 | COCCOc1c(C)c(OC(=O)c2c(C)cc(OC)c(C)c2OC)cc(C)c1C(=O)OC [SB4, 4-(Methoxycarbonyl)-3-(2-methoxyethoxy)-2,5-dimethylphenyl 2,4-dimethoxy-3,6-dimethylbenzoate] | 60 | 19 | significantly reduced the number of invaded cells | ~10
